Test results: US20240043448A1, “Small Molecule Inhibitors of KRAS G12C Mutant” (Merck Sharp & Dohme LLC, priority 2019, published 2024)
Like-named read-outs stand apart in the source and are kept apart here.

What was measured:
phospho-ERK = assay: Cellular phospho-ERK assay; type: cell-based; conditions: NCI-H358 cells, 2 hour incubation, ratio of p-Erk vs total Erk, read-out: IC50 (nM) pERK (Cell)
Experimental: NCI-H358 cells (ATCC® CRL-5807™) were cultured in T150 flask in growth medium (RPMI medium 1640-GlutaMAX™-I (ThermoFisher Scientific 61870) containing 10% fetal bovine serum (ThermoFisher Scientific 10091148)). The cells were harvested in growth medium after TrypLE (ThermoFisher scientific 12604021) digestion and were seeded in a 384-well collagen coated cell culture plate (Corning 356702) at a density of 15,000 cells/well, and incubated at 37° C., 5% CO2 overnight. The compound dose-response titrations were prepared and appropriate amounts of compounds were dispensed in a 384-well intermediate plate using an Echo 550 liquid handler. RPMI medium 1640-GlutaMAX™-I were added to the intermediate plate and transferred to 384-well cell culture plate, which was incubated at 37° C., 5% CO2 for 2 hours. After removal of medium from the plate, cells were lysed in lysis buffer from Alpha SureFire® Ultra™ Multiplex p-Erk and total Erk assay kit (PerkinElmer MPSU-PTERK) containing Halt™ Protease and Phosphotase inhibitor cocktail (ThermoFisher Scientific 78446) at room temperature with constant shaking at 300 rpm for 30 minutes. The cell lysates were then transferred to OptiPlate-384 plate (PerkinElmer 6005620) and the phosphorylation of Erk and total Erk levels were detected by Alpha SureFire Ultra Multiplex p-Erk kit (PerkinElmer MPSU-PTERK) following the manufacturer's protocol. Assay plates were read on an EnVision Multimode Plate Reader (PerkinElmer), and the ratio of p-Erk vs total Erk in each well was used as the final readout. Dose response curves were analyzed using a 4-parameter logistic model to calculate IC50 values using spotfire software.

[1] = biological target: Biotinylated KRAS G12C protein (Homo sapiens (Human), UniProt P01116, C118S/C51S/C80L/G12C); assay: SOS-catalyzed nucleotide exchange assay (TR-FRET); type: biochemical; conditions: in vitro apparent potency; preincubation time of 60 minutes prior to addition of SOS
Experimental: The SOS-catalyzed nucleotide exchange assay utilizes a preformed complex of recombinant biotinylated KRAS protein containing G12C/C51S/C80L/C118S mutations (183 amino acids; biotin on K10; leader sequence which is an AviTag; referred to as SEQ ID NO: 1 or “Biotinylated KRAS G12C protein” hereafter), Bodipy-GDP, and Terbium-streptavidin. Compounds are added to this complex and then after incubation for 60 minutes, the mixture is treated with recombinant SOS protein and unlabeled GTP. Small molecule inhibitors stabilize the Bodipy-GDP complex whereas the untreated protein rapidly exchanges Bodipy-GDP for unlabeled GTP resulting in reduced TR-FRET signal.
Biotinylated KRAS G12C protein (SEQ ID NO: 1) is diluted to 2 μM in an EDTA buffer (20 mM HEPES, 150 mM sodium chloride, 10 mM EDTA, and 0.01% Tween) and incubated at room temperature for one hour. This mixture is then further diluted to 90 nM in an assay buffer (20 mM HEPES, 150 mM sodium chloride, 10 mM magnesium chloride, and 0.005% Tween) containing 15 nM of Terbium-Streptavidin (Invitrogen, catalog #PV3577) and 900 nM of Bodipy-GDP and incubated at room temperature for six hours. This solution is referred to as Biotinylated KRAS G12C mixture.
Each test compound (10 mM stock in DMSO) is diluted in DMSO to make a 10-point, 3-fold dilution series in a 384-well low dead volume microplate (Labcyte, catalog #LP-0200). Once titrations are made, 10 nL of the diluted compounds is acoustically dispensed into a 384-well plate (Corning, catalog #3820) using an Echo 550 (Labcyte).
Each well of the plate receives 3 μL Biotinylated KRAS G12C mixture that had been incubating for six hours and 3 μL of assay buffer using a BioRAPTR (Beckman Coulter) and is incubated at room temperature for 60 minutes. Each well then receives 3 μL of 240 nM recombinant human SOS protein and 9 mM GTP (Sigma, G8877) in assay buffer and is incubated at room temperature for 60 minutes.
The time-resolved fluorescence resonance energy transfer signal of the plate is measured on an Envision (PerkinElmer) plate reader: Excitation filter=340 nm; emission1=495 nm; emission2=520 nm; dichroic mirror=D400/D505; delay time=100 μs. The signal of each well is determined as the ratio of the emission at 520 nm to that at 495 nm. Percent effect of each well is determined after normalization to control wells containing DMSO (no effect) or a saturating concentration of inhibitor (max effect). The apparent effect as a function of compound concentration is fit to a four parameter logistic equation.

Molecule	IC50 (phospho-ERK) [nM]	IC50 [1] [nM]	IC50 (phospho-ERK; Homo sapiens, NCI-H358, 2 h) [nM]
C=CC(=O)N1C[C@H](C)N(c2nc(=O)n3c4nc(c(F)cc24)-c2c(F)ccc(F)c2OCCOc2ccnc(Cl)c2-3)C[C@H]1C [Example 87, 6-chloro-2-[(2S,5R)-2,5-dimethyl-4-(prop-2-enoyl)piperazin-1-yl]-14,17,20-trifluoro-11,12-dihydro-4H-1,18-ethenopyrido[4,3-e]pyrimido[1,6-g][1,4,7,9] benzodioxadiazacyclododecin-4-one]		461	3210
17,20-difluoro-6-(propan-2-yl)-2-[4-(prop- 2-enoyl)-2-(2,2,2-trifluoroethyl)piperazin- 1-yl]-11,12-dihydro-4H,10H-1,18- (ethanediylidene)pyrido[4,3- e]pyrimido[1,6-g][1,7,9] benzoxadiazacyclododecin-4-one [Example 101]	137	29	
C=CC(=O)N1C[C@H](C)N(c2nc(=O)n3c4nc(c(F)cc24)-c2c(F)cccc2OCCCCc2cnc(C(C)C)c-3c2C)C[C@H]1C (single isomer, unassigned) [Example 89]	4160	71	
C=CC(=O)N1C[C@H](C)N(c2nc(=O)n3c4nc(c(F)cc24)-c2c(ccc(F)c2F)OCC2(CC2)Cc2ccnc(C(C)C)c2-3)C[C@H]1C [Example 92, 2′-[(2S,5R)-2,5-dimethyl-4-(prop-2-enoyl)piperazin-1-yl]-16′,17′,20′-trifluoro-6′-(propan-2-yl)-4′H,10′H,12′H-spiro[cyclopropane-1,11′-[13]oxa[3,5,7,19]tetraaza[1,18]ethenopyrido [4,3-e]pyrimido[1,6-g][1,7,9]benzoxadiazacyclododecin]-4′-one]		0.71	12
C=CC(=O)N1C[C@H](C)N(c2nc(=O)n3c4nc(c(F)cc24)-c2c(ccc(F)c2F)OCCC(C)c2ccnc(C(C)C)c2-3)C[C@H]1C (stereo partly drawn) [Example 90, 2-[(2S,5R)-2,5-dimethyl-4-(prop-2-enoyl)piperazin-1-yl]-16,17,20-trifluoro-10-methyl-6-(propan-2-yl)-11,12-dihydro-4H,10H-1,18-ethenopyrido[4,3-e]pyrimido[1,6-g][1,7,9]benzoxadiazacyclododecin-4-one]		1.4	6.8

Continued by falling IC50 [1], values first:

IC50 (phospho-ERK) [nM]	IC50 [1] [nM]	IC50 (phospho-ERK; Homo sapiens, NCI-H358, 2 h) [nM]	Molecule
109	10		C=CC(=O)N1CCN(c2nc(=O)n3c4nc(c(F)cc24)-c2c(F)cccc2OCCCCc2cnc(C(C)C)c-3c2)[C@H](C)C1 [Example 16b, 19,22-difluoro-2-[(2S)-2-methyl-4-(prop-2-enoyl)piperazin-1-yl]-7-(propan-2-yl)-11,12,13,14-tetrahydro-4H-1,20-(ethanediylidene)-6,10-(metheno)pyrimido[1,6-k][1,8,11,13]benzoxatriazacyclohexadecin-4-one]
13	6.5		C=CC(=O)N1C[C@H](C)N(c2nc(=O)n3c4nc(c(F)cc24)-c2c(cccc2C(F)(F)F)OCCOc2ccnc(C(C)C)c2-3)C[C@H]1C [Example 73, 2-[(2S,5R)-2,5-dimethyl-4-(prop-2-enoyl)piperazin-1-yl]-20-fluoro-6-(propan-2-yl)-17-(trifluoromethyl)-11,12-dihydro-4H-1,18-(ethanediylidene)pyrido[4,3-e]pyrimido[1,6-g][1,4,7,9]benzodioxadiazacyclododecin-4-one]
	5.7	33	[2H]C1([2H])Oc2ccc(F)c(F)c2-c2nc3c(cc2F)c(N2C[C@@H](C)N(C(=O)C=C)C[C@@H]2C)nc(=O)n3-c2c(ccnc2C(C)C)OC1([2H])[2H] [Example 64, 2-[(2S,5R)-2,5-Dimethyl-4-(prop-2-enoyl)piperazin-1-yl]-16,17,20-trifluoro-6-(propan-2-yl)-11,12-di[(^2H)hydro](11,12-^2H2)-4H-1,18-(ethanediylidene)pyrido [4,3-e]pyrimido[1,6-g][1,4,7,9] benzodioxadiazacyclo-dodecin-4-one]
